Literature values, collected in patent US8367620B2, “Peptidic growth hormone secretagogues analog compounds and preparations thereof” (Centro de Ingenieria Genetica y Biotecnologia, priority 2006, dated 2013).
Where no end group is shown, it is not given here. [ ]: non-standard residue; d: D form. d2Nal = N[C@H](Cc1ccc2ccccc2c1)C(=O)O

Tested on: GH release
Settings: McDowell 1995; compared to GHRP-6; cited from earlier work

## [dK][d2Nal]AW[dF]EK-NH2
  fold increased activity in vitro: 10 fold
